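Cultured in 96-well plates, cells were exposed to test compound for 48 hours across five concentrations. TGI: concentration producing complete growth inhibition.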
Tests used:
Experiment in all cases: NCI anticancer screen, dose series, 48 h
786-0 renal = test system: 786-0 renal
DU-145 prostate = test system: DU-145 prostate
U251 CNS = test system: U251 CNS
K-562 leukemia = test system: K-562 leukemia
SK-MEL-5 melanoma = test system: SK-MEL-5 melanoma
SNB-75 CNS = test system: SNB-75 CNS
MDA-N = test system: MDA-N
CCRF-CEM leukemia = test system: CCRF-CEM leukemia
KM12 colon = test system: KM12 colon
M14 melanoma = test system: M14 melanoma
UO-31 renal = test system: UO-31 renal
UACC-257 melanoma = test system: UACC-257 melanoma
SK-OV-3 ovarian = test system: SK-OV-3 ovarian
SW-620 colon = test system: SW-620 colon
RXF 393 renal = test system: RXF 393 renal
SNB-19 CNS = test system: SNB-19 CNS
OVCAR-8 ovarian = test system: OVCAR-8 ovarian
CAKI-1 renal = test system: CAKI-1 renal

Row | SMILES | TGI (786-0 renal) [µM] | TGI (DU-145 prostate) [µM] | TGI (U251 CNS) [µM] | TGI (K-562 leukemia) [µM] | TGI (SK-MEL-5 melanoma) [µM] | TGI (SNB-75 CNS) [µM] | TGI (MDA-N) [µM] | TGI (CCRF-CEM leukemia) [µM] | TGI (KM12 colon) [µM] | TGI (M14 melanoma) [µM] | TGI (UO-31 renal) [µM] | TGI (UACC-257 melanoma) [µM] | TGI (SK-OV-3 ovarian) [µM] | TGI (SW-620 colon) [µM] | TGI (RXF 393 renal) [µM] | TGI (SNB-19 CNS) [µM] | TGI (OVCAR-8 ovarian) [µM] | TGI (CAKI-1 renal) [µM]
1 | CCn1c(=O)c2nc(SC)sc2n(-c2ccccc2)c1=O | > 100 | > 100 | > 100 | > 100 | > 100 | > 100 | > 100 | > 100 | > 100 | > 100 | 56.4 | > 100 | > 100 | > 100 | > 100 | > 100 | > 100 | –
2 | NC(=Nc1cccc(Cl)c1)c1ccccc1N | > 100 | > 100 | > 100 | > 100 | > 100 | > 100 | > 100 | – | > 100 | > 100 | > 100 | > 100 | > 100 | > 100 | > 100 | > 100 | > 100 | > 100
3 | CSc1c(CC(=O)Nc2ccc(Cl)cc2)n(Cc2ccccc2)c2ccccc12 | 30.3 | > 100 | 25 | > 100 | > 100 | 33.1 | > 100 | > 100 | > 100 | > 100 | > 100 | > 100 | > 100 | > 100 | 30.1 | > 100 | 41 | > 100
4 | CCOC(=O)C(C)c1nc2ccc(C(F)(F)F)cc2[nH]c1=O (centres undefined) | > 100 | > 100 | > 100 | > 100 | > 100 | > 100 | > 100 | > 100 | > 100 | > 100 | > 100 | > 100 | > 100 | > 100 | > 100 | > 100 | > 100 | –
5 | CCn1c2ccccc2c2ccc(C3C(C(=O)OC)=C(C)NC(C)=C3C(=O)OC)cc21 | > 100 | > 100 | > 100 | > 100 | > 100 | > 100 | > 100 | > 100 | > 100 | – | > 100 | > 100 | > 100 | > 100 | 49.4 | > 100 | > 100 | > 100
6 | COc1c2c(cc3c1C1(O)Cc4ccc5c(c4C[N+]1(C)CC3)OCO5)OCO2 (centres undefined) | > 100 | > 100 | > 100 | > 100 | > 100 | > 100 | > 100 | > 100 | > 100 | > 100 | – | > 100 | > 100 | > 100 | > 100 | > 100 | > 100 | > 100
7 | COc1cc2ccc1OCc1cccc(n1)COc1ccc(cc1OC)C=NCCNCCNCCN=C2 | > 100 | > 100 | > 100 | > 100 | > 100 | > 100 | > 100 | > 100 | > 100 | > 100 | > 100 | > 100 | > 100 | > 100 | > 100 | > 100 | > 100 | > 100
8 | C=CCc1cc(C(Cc2ccccc2)NC(C)C)cc(OCc2ccccc2)c1OCc1ccccc1 (centres undefined) | 30.7 | 29.7 | 27.7 | 40.9 | 30.6 | 26.2 | 25.8 | 33.5 | 40.2 | 28.8 | 21.7 | 34.4 | 27 | 32.5 | 30.4 | 28.8 | 31.5 | 29.5
9 | O=C(NNS(=O)(=O)c1ccccc1)c1cccnc1 | > 100 | > 100 | > 100 | > 100 | > 100 | > 100 | > 100 | > 100 | > 100 | > 100 | > 100 | > 100 | > 100 | > 100 | > 100 | > 100 | > 100 | > 100
10 | C=CCCCCOC1C=CC(O)C(CO)O1 (centres undefined) | > 100 | > 100 | > 100 | > 100 | > 100 | – | > 100 | > 100 | > 100 | > 100 | > 100 | > 100 | > 100 | > 100 | > 100 | > 100 | > 100 | > 100
11 | CN(C)c1cccc2c1C(=O)C=CC21CCc2ccc(N(C)C)c3c(N(C)C)ccc1c23 (centres undefined) | 26.1 | 17.5 | – | 24.2 | 30.1 | 19.2 | 28.6 | 87.7 | 30.2 | 29.1 | 24.1 | 25.1 | 27 | 35.6 | 20.8 | 33.4 | 53.2 | 40
12 | Cc1cccc(C)c1Nc1nc(C)c(C(=O)CC(=O)C(=O)Nc2c(C(C)C)cccc2C(C)C)s1 | > 100 | > 100 | > 100 | > 100 | > 100 | – | > 100 | – | > 100 | > 100 | > 100 | > 100 | > 100 | > 100 | > 100 | > 100 | > 100 | > 100
13 | CC(C)(C)OC(=O)CN1CCN(CC(=O)N2CCN(C(=O)OCc3ccccc3)CC2)CCN(CC(=O)OC(C)(C)C)CCN(CC(=O)N2CCN(C(=O)OCc3ccccc3)CC2)CC1 | 7.42 | 20.1 | 9.51 | – | 3.92 | 4.75 | 7.65 | 3.51 | 3.06 | 14.3 | 25.5 | 5.92 | 16.5 | 8.5 | 17 | 14.6 | 16.8 | 23.4
14 | Cc1ccc2[nH]c3[nH]c(=S)[nH]c(=O)c3c2c1 | > 100 | > 100 | – | > 100 | > 100 | > 100 | > 100 | > 100 | > 100 | > 100 | > 100 | > 100 | > 100 | > 100 | > 100 | > 100 | > 100 | > 100
15 | Cc1c(N2C(=O)/C(=C/c3ccc(N(CCC#N)CCC#N)cc3)N=C2c2ccccc2)c(=O)n(-c2ccccc2)n1C | > 100 | > 100 | > 100 | – | > 100 | – | > 100 | > 100 | > 100 | > 100 | > 100 | > 100 | > 100 | > 100 | > 100 | > 100 | > 100 | > 100
16 | COc1cccc2cc(C(C)=O)c(=O)oc12 | > 100 | > 100 | > 100 | > 100 | > 100 | > 100 | > 100 | > 100 | > 100 | > 100 | > 100 | > 100 | – | > 100 | > 100 | – | > 100 | > 100
17 | S=C(N1CCN(c2cccc(Cl)c2)CC1)N1CCN(c2cccc(Cl)c2)CC1 | > 100 | > 100 | > 100 | > 100 | > 100 | – | > 100 | 27.8 | 61.7 | > 100 | 86.1 | > 100 | > 100 | > 100 | > 100 | > 100 | > 100 | 83.7
18 | NC(=O)c1c(NC=O)ncn1C1OCC(O)C(O)C1O (centres undefined) | > 100 | > 100 | > 100 | > 100 | > 100 | > 100 | > 100 | > 100 | > 100 | – | > 100 | > 100 | > 100 | > 100 | > 100 | > 100 | > 100 | > 100
19 | CC(=O)C(=[N+]=[N-])C(=O)N(C)CCC#N | > 10 | > 10 | > 10 | > 10 | – | 3.39 | > 10 | > 10 | > 10 | > 10 | > 10 | > 10 | > 10 | > 10 | > 10 | > 10 | > 10 | –
20 | CCN(CC)c1ccc2cc(C(=O)Nc3ccc(C)cc3)c(=N)oc2c1 | > 100 | > 100 | > 100 | > 100 | > 100 | > 100 | > 100 | > 100 | > 100 | > 100 | – | > 100 | > 100 | > 100 | > 100 | > 100 | > 100 | > 100
21 | CN(C(=O)Cc1cc(Cl)c(Cl)cc1NC(=O)CN)[C@H]1CCCC[C@@H]1N1CCCC1 | 38 | > 100 | 32.6 | 57.5 | – | 55.9 | 31.7 | 73.3 | > 100 | 33.5 | > 100 | 33.9 | > 100 | > 100 | > 100 | > 100 | > 100 | > 100
22 | N#CCN(CC#N)C1CC=CCC1N(CC#N)CC#N (centres undefined) | > 100 | > 100 | > 100 | > 100 | > 100 | – | > 100 | > 100 | > 100 | > 100 | > 100 | > 100 | > 100 | > 100 | > 100 | > 100 | > 100 | > 100
23 | CCOC(=O)CN1CC(C2=C(O)CN(CC(=O)OCC)C2=O)=CC1=O | > 100 | > 100 | > 100 | > 100 | > 100 | > 100 | > 100 | > 100 | > 100 | > 100 | > 100 | > 100 | > 100 | > 100 | – | > 100 | > 100 | > 100
24 | COC1CCC(=O)N1CN(C(C)=O)c1ccc(C)cc1 (centres undefined) | > 100 | > 100 | > 100 | > 100 | > 100 | > 100 | > 100 | – | > 100 | > 100 | > 100 | > 100 | > 100 | > 100 | > 100 | > 100 | > 100 | > 100
25 | COC(=O)[C@@H]1CC(C(CN)c2cn(C(=O)OC(C)(C)C)c3ccccc23)C(=O)N1C(=O)OC(C)(C)C (some centres undefined) | > 100 | > 100 | > 100 | 48.4 | 31.6 | 33.8 | 69.6 | 34.8 | > 100 | > 100 | > 100 | 32.2 | – | > 100 | 46.2 | > 100 | 55.8 | 76.3
26 | CC1(C)OC[C@@H](O)[C@H](Br)CO1 | > 100 | > 100 | > 100 | > 100 | – | > 100 | > 100 | > 100 | > 100 | > 100 | > 100 | > 100 | > 100 | > 100 | > 100 | > 100 | > 100 | > 100
27 | C=CCOc1ccccc1C1(O)c2ccccc2C2=NCCCN21 (centres undefined) | > 100 | > 100 | > 100 | > 100 | > 100 | > 100 | > 100 | > 100 | > 100 | 39.8 | > 100 | > 100 | > 100 | > 100 | – | 79.5 | 34.6 | > 100

From PubChem BioAssay (NCI)
